The values below are quoted from earlier work in US20130102635A1, “Methods for Treating Disorders Associated with Hyperlipidemia in a Mammal” (priority 2005, published 2013).

For data set [1] the following is noted: clinical studies, 80 mg/day or greater.
For data set [2] the following is noted: animal model for homozygous FH, for example at 25 mg/day.

“Also recorded” adds a separate entry of the source. Read-outs that look alike come from different tables or passages of the source.

Turning to `Cc1cc(C)c2c3ccccc3n(Cc3ccc([C@@H](C(=O)N[C@H](CO)c4ccccc4)C4CCCC4)cc3)c2n1` [implitapide, (2S)-2-cyclopentyl-2-[4-[(2,4-dimethyl-9H-pyrido[2,3-b]indol-9-yl)methyl]phenyl]-N-[(1S)-2-hydroxy-1-phenylethyl]ethanamide], the therapeutic effectiveness entry in data set [1] is reported as “therapeutically effective”. Also, the adverse events result (clinical studies, implitapide 80 mg/day or greater) is “gastrointestinal disturbances, abnormalities in liver function, and hepatic steatosis”; the adverse events entry (implitapide 80 mg/day and 160 mg/day) is listed as “gastrointestinal disorders, abnormalities in liver function and/or hepatic steatosis”.

`O=C(NC1CCN(CCCCC2(C(=O)NCC(F)(F)F)c3ccccc3-c3ccccc32)CC1)c1ccccc1-c1ccc(C(F)(F)F)cc1` [BMS-201038, N-(2,2,2-Trifluorethyl)-9-[4-[4-[[[4′-(trifluoromethyl)[1,1′biphenyl]-2-Yl]carbonyl]amino]-1-piperidinyl]butyl] 9H-fluorene-9-carboxamide]: the “reduction of plasma cholesterol levels” value in data set [2] was “effectively reduced plasma cholesterol levels in a dose dependent manner”. Moreover, where the note is “patients, 25 mg/day BMS-201038”, the adverse events result is “gastrointestinal disturbances, abnormalities in liver function, and hepatic steatosis; also recorded: gastrointestinal disorders, abnormalities in liver function and/or hepatic steatosis”.
